The values below come from patent US6350729B1, “Inhibition of nitric oxide-mediated hypotension and septic shock with iron-containing hemoprotein” (Board of Regents, The University of Texas System, priority 1992, dated 2002).

Like-named read-outs stand apart in the source and are kept apart here.

Experiment [1] has as its system rabbit aortic rings. Conditions: cited from earlier work.
In experiment [2] the test system is endotoxin-induced hypotension. Briefly: Endotoxin-induced hypotension in anesthetized dog, mean arterial blood pressure. The experiment is classed as in vivo. Here is the method: Experiments were carried out on conditioned mongrel dogs weighing 23-28 kg. Animal care was in accordance with the recommendations of the American Association for Accreditation of Laboratory Animal Care and met all standards prescribed by the Guide for the Care and Use of Laboratory Animals (Committee on Care and Use of Laboratory Animals (1978) Guide for the Care and Use of Laboratory Animals (Natl. Inst. Health, Bethesda, Md.) DHEW Publ. No. (NIH) 78-83.
The dog was fasted overnight before the day of the experiment and was anesthetized with pentobarbital (25 mg/kg, i.v.), orotracheally intubated and ventilated with a Harvard pump at a nominal rate of 12 breaths per minute and a tidal volume of 15 ml/kg. The dog was instrumented with a cordis for the introduction of a Swan-ganz catheter for measurement of central venous and pulmonary arterial pressures as well as an arterial line for continuous blood pressure monitoring via a computer driven analog to digital processor.
After the blood pressure and heart rate was stabilized, endotoxin was administered to the dog as a bolus injection (50 μg/kg, i.v. in 10 ml DPBS. After the onset of hypotension, a rapid infusion of 50 ml hemoglobin (5.0 g commercially available bovine hemoglobin/100 ml) over 20 seconds was administered by a central venous catheter. Cardiovascular changes were monitored for an additional 12 hrs. after hemoglobin administration.
A tracing depicting endotoxin-induced hypotension, its inhibition by hemoglobin, and subsequent administration of bovine serum albumin (5 grams) is shown in FIG. 1. Mean arterial blood pressure declined from 160 mm Hg to 70 mm Hg two hours after endotoxin administration. The hemoglobin (HgB) was subsequently administered as an intravenous bolus. […] This effect lasted approximately 45 minutes before the blood pressure decline resumed. […] On repetition of this experiment, substantially the same results were obtained.

For experiment [3], the system named is blood pressure. Conditions: guinea pigs; cited from earlier work.
In experiment [4] the test system is blood pressure. As to conditions: rabbits; cited from earlier work.
Experiment [5] can be described thus: Kinetic 96-well microplate assay, capture of NO by Fe2+-myoglobin. The experiment is classed as biochemical. Conditions: 5 μM Mb, endothelial cell cytosol, 500 μM L-arginine, 500 μM NADPH, 80 mM TRIS pH 7.6, 25° C. The procedure: Nitric oxide formation by endothelial cell cytosol was measured by a novel kinetic 96-well microplate assay. The assay is based on the capture of NO by Fe^2+-myoglobin (Mb) which is subsequently oxidized to Fe^3+-myoglobin. The process of heme oxidation was continuously measured in a kinetic microplate reader (Molecular Devices, Menlo Park Calif.) as the rate of change in OD405-OD650. Data points were collected from all 96 wells every 16 sec. for 30 minutes at 25° C. with shaking prior to each OD measurement. The slope of the best fit regression line (OD/min) was used to calculate the rate of NO-synthesis. OD/min measurements were converted to pmoles NO/min by dividing by the increase in OD405-OD650 measured upon complete oxidation of 1 pmole of reduced Mb with a 10-fold molar excess of potassium ferricyanide. Under the conditions employed, the efficiency of NO capture by Mb approached 100%; neither doubling nor halving the concentration of Mb influenced the Mb oxidation rate. All samples contained 5-30 μl of endothelial cell cytosol (1-6 mg protein/ml) and final concentrations of 5 μM Mb, 500 μM L-arginine, 500 μM NADPH and 80 Mm TRIS, pH 7.6.
Fe^2+-Myoglobin Preparation: 2 mM myoglobin (from horse skeletal muscle, Sigma) was reduced with a sodium dithionite and immediately applied to a Sephadex G-25 column, followed by elution with 50 Mm TRIS buffer, Ph 7.6. […]

On to “hemoglobin: commercially available bovine hemoglobin, 5.0 g/100 ml, iron hemoprotein given intravenously”, for which the results for the “endothelium-dependent relaxation induced by acetylcholine or by A23187” value in experiment [1] (1 μM) and in experiment [1] (10 μM) were “reduced” and “abolished”, respectively. For the same molecule, in experiment [2] (FIG. 1 legend), the “endotoxin-induced mean arterial decline (FIG. 1)” value is recorded as “interrupted”. Besides, the “duration of effect before the blood pressure decline resumed” value in experiment [2] (endotoxin 50 μg/kg i.v., 50 ml of 5.0 g/100 ml bovine hemoglobin over 20 seconds) is given as “approximately 45 minutes”. Besides, the blood pressure drop result in experiment [2] (endotoxin 50 μg/kg i.v., intravenous bolus after mean arterial pressure fell from 160 to 70 mm Hg at two hours) is reported as “abrogated”. The hypotension result in experiment [2] (endotoxin 50 μg/kg i.v., intravenous bolus after onset of hypotension) is on record as “partially reversed”.

For `CNC(=N)NCCC[C@H](N)C(=O)O` [N^G-methyl-L-arginine], the “effect on blood pressure” value in experiment [3] and in experiment [4] was “increase blood pressure” in each case.

Take “bovine serum albumin: bovine serum albumin (5 grams) given as protein comparison after hemoglobin [reference compound]”: the “subsequent blood pressure decline” value in experiment [2] (endotoxin-induced hypotension, 5 grams given after the hemoglobin effect ended) is reported as “only slightly influenced”.

B1: Mb: myoglobin from horse skeletal muscle, Sigma, reduced to Fe2+ form (protein, UniProt P68082 2-154, looked up)
Myoglobin: GLSDGEWQQVLNVWGKVEADIAGHGQEVLIRLFTGHPETLEKFDKFKHLKTEAEMKASEDLKKHGTVVLTALGGILKKKGHHEAELKPLAQSHATKHKIPIKYLEFISDAIIHVLHSKHPGDFGADAQGAMTKALELFRNDIAAKYKELGFQG
On to B1, for which, in experiment [5], the “efficiency of NO capture” value was about 100%.
